Assay results reported in patent publication US6797721B2, “Phorboxazole derivatives for treating cancer” (Parker Hughes Institute, priority 1999, dated 2004).
pIC50: −log10 of the molar value.

Experiments:
Format in all cases: cell-based
[1] = system: RPMI-18226 (multiple myeloma); test: MTT cytotoxicity assay, RPMI-18226; conditions: Homo sapiens, RPMI18226
[2] = system: U373 human glioblastoma cells; test: MTT cytotoxicity assay, U373; conditions: U373 MG, U373 (brain tumor, glioblastoma), 24-36 hours, read-out: IC50 [MTT]
Experimental: (§1) The cytotoxicity assay of synthetic Phorboxazole A and various derivative compounds against human tumor cells was performed using the MTT (3-[4,5-dimethylthiazol-2-yl]-2,5-diphenyl tetrazolium bromide) assay (Boehringer Mannheim Corp., Indianapolis, Ind.). Briefly, exponentially growing brain tumor cells were seeded into a 96-well plate at a density of 2.5×10^4 cells/well and incubated for 36 hours at 37° C. prior to drug exposure. On the day of treatment, culture medium was carefully aspirated from the wells and replaced with fresh medium containing the various phorboxazole A derivative compounds as well as the tyrosine kinase inhibitory isoflavone genistein (GEN) at concentrations ranging from 0.1 to 250 μM. Triplicate wells were used for each treatment.
(§2) Human glioblastoma cells U373 (brain cancer), human B-lineage acute lymphoblastic leukemia cells NALM-6, and human breast cancer cells BT-20 were obtained from American Type Culture Collection (Rockville, Md.) and maintained as a continuous cell line in Dulbecco's modified Eagles's medium supplemented with 10% fetal bovine serum and antibiotics.
(§3) The cells were incubated with the various compounds for 24-36 hours at 37° C. in a humidified 5% CO2 atmosphere. To each well, 10 μl of MTT (0.5 mg/ml final concentration) was added and the plates were incubated at 37° C. for 4 hours to allow MTT to form formazan crystals by reacting with metabolically active cells. The fonnazan crystals were solubilized overnight at 37° C. in a solution containing 10% SDS in 0.01 M HCl. The absorbance of each well was measured in a microplate reader (Labsystems) at 540 nm and a reference wavelength of 690 nm. To translate the OD540 values into the number of live cells in each well, the OD540 values were compared to those on standard OD540-versus-cell number curves generated for each cell line. The percent survival was calculated using the formula: [formula]
(§4) The IC50 values were calculated by non-linear regression analysis.

[3] = system: HS-SULTAN (multiple myeloma); test: MTT cytotoxicity assay, HS-SULTAN; conditions: Homo sapiens
[4] = system: U373 human glioblastoma cells; test: Clonogenic assay, U373; conditions: 7 days
Experimental: The growth-inhibiting activity of the synthetic Phorboxazole A and the synthesized derivatives was tested in clonogenic assays. Cancer cells were treated with 1 nM, 10 nM, and 100 nM doses of synthetic Phorboxazole A or derivatives of phorboxazole A. Treated cells included U373 human glioblastoma cells, NALM-6, human B-lineage acute lymphoblastic leukemia cells, and BT-20 human breast cancer cells. The cancer cells were resuspended in clonogenic medium consisting of alpha-MEM supplemented with 0.9% methylcellulose, 30% fetal bovine serum, and 50 μM 2-mercaptoethanol. Cells were plated in duplicate Petri dishes at 100,000 cells/mL/dish and cultured in a humidified 5% CO2 incubator for 7 days. Cancer cell colonies were enumerated on a grid using an inverted phase microscope of high optical resolution. Results were expressed as % inhibition of clonogenic cells at a particular concentration of the test agent using the formula:
% Inhibition=(1−Mean # of colonies [Test]/Mean # of colonies [Control]×100.

[5] = system: NALM-6 human B-lineage acute lymphoblastic leukemia cells; test: MTT cytotoxicity assay, NALM-6; conditions: NALM-6 (leukemia, ALL), 24-36 hours, read-out: IC50 [MTT]
Experimental: as §1, §2, §3, §4

[6] = system: DU-145 (prostate cancer); test: MTT cytotoxicity assay, DU-145; conditions: Homo sapiens
Experimental: as §1
The cells were incubated with the various compounds for 24-36 hours at 37° C. in a humidified 5% CO2 atmosphere. To each well, 10 μl of MTT (0.5 mg/ml final concentration) was added and the plates were incubated at 37° C. for 4 hours to allow MTT to form formazan crystals by reacting with metabolically active cells. […] The absorbance of each well was measured in a microplate reader (Labsystems) at 540 nm and a reference wavelength of 690 nm. […] The percent survival was calculated using the formula: [formula]
The IC50 values were calculated by non-linear regression analysis. […]

[7] = system: ARH77 (multiple myeloma); test: MTT cytotoxicity assay, ARH77; conditions: Homo sapiens, ARH-77

C=C1C[C@@H]2C[C@@H]3C[C@@H](O)C[C@@H](O3)c3coc(n3)/C=C/C[C@H]3O[C@@H](/C(C)=C/c4coc(C[C@]5(O)C[C@H](OC)C[C@H]([C@H](O)/C=C(C)/C=C/[C@@H](C/C=C/Br)OC)O5)n4)[C@H](C)[C@@H](OC(=O)/C=C\C[C@@H](C1)O2)[C@H]3C [Compound 1, Phorboxazole A]
pIC50 [1]: 7.25
pIC50 [2]: 8.17
pIC50 [3]: 7.53
Mean Number Colonies/10^4 cells ([4]; 10 nM): 378
Mean Number Colonies/10^4 cells ([4]; 100 nM): 0
inhibition at 0.01 µM ([4]; Homo sapiens, U373 MG, 168 h, 10 nM, read-out: Inhibition of clonogenic growth): 42.4%
inhibition at 0.1 µM ([4]; Homo sapiens, U373 MG, 168 h, 100 nM, read-out: Inhibition of clonogenic growth): > 99.9%
pIC50 [5]: 8.77
pIC50 [6]: 7.82
pIC50 [7]: 8.12
